# Assay results published in patent US9695155B2, “Herbicidal substituted pyrimidinyloxy benzene compounds” (E. I. DU PONT DE NEMOURS AND COMPANY, priority 2013, dated 2017).
# Assays:
# [1] = test system: Italian ryegrass; experiment: Test C preemergence; type: in vivo, Lolium multiflorum
# Summary of the method: (§1)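 Seeds are planted in blended loam soil and sand and treated preemergence, while seedlings in a peat moss/vermiculite medium receive postemergence sprays at 2 to 18 cm height. All plants stay in the greenhouse for 13 to 15 days before visual comparison with controls on a 0–100 scale.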
# [2] = test system: barnyardgrass; experiment: Test B flooded paddy test; type: in vivo, Echinochloa crus-galli; settings: Flood, 250 g ai/ha, 0 to 100 scale where 0 is no effect and 100 is complete control
# Summary of the method: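 Seedlings are raised to two leaves, flooded to a depth of 3 cm and dosed by adding the compound to the floodwater. Water level is kept constant, and plants are scored visually versus controls 13–15 days later (0 = no effect, 100 = complete control).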
# [3] = test system: ragweed; experiment: Test A postemergence; type: in vivo, Ambrosia elatior
# Summary of the method: (§2)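 Injury scores run from 0, no effect, to 100, complete control, judged by eye against untreated plants roughly 10 days after treatment. Chemicals carried a surfactant in a non-phytotoxic solvent and went onto loam–sand soil preemergence or onto one- to two-leaf seedlings postemergence.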
# [4] = test system: wheat, winter; experiment: Test C postemergence; type: in vivo, Triticum aestivum; settings: for Wheat plant response rating: 31 g ai/ha
# Summary of the method: as §1
# [5] = test system: pigweed; experiment: Test A preemergence; type: in vivo, Amaranthus retroflexus; settings: for Pigweed plant response rating (0 to 100 scale): 125 g ai/ha
# Summary of the method: as §2
# [6] = test system: giant foxtail; experiment: Test A preemergence; type: in vivo, Setaria faberii; settings: for Foxtail, Giant plant response rating (0 to 100 scale): 125 g ai/ha
# Summary of the method: as §2
# [7] = test system: chickweed; experiment: Test C postemergence; type: in vivo, Stellaria media
# Summary of the method: as §1
# [8] = test system: blackgrass; experiment: Test A postemergence; type: in vivo, Alopecurus myosuroides
# Summary of the method: as §2
# [9] = test system: ragweed; experiment: Test A preemergence; type: in vivo, Ambrosia elatior; settings: for Ragweed plant response rating (0 to 100 scale): 125 g ai/ha
# Summary of the method: as §2
# [10] = test system: kochia; experiment: Test C postemergence; type: in vivo, Kochia scoparia
# Summary of the method: as §1
# [11] = test system: wild oat; experiment: Test C postemergence; type: in vivo, Avena fatua; settings: for Oat, Wild plant response rating: 31 g ai/ha
# Summary of the method: as §1
# [12] = test system: wheat; experiment: Test A postemergence; type: in vivo, Triticum aestivum
# Summary of the method: as §2
# [13] = test system: large (Lg) crabgrass; experiment: Test C preemergence; type: in vivo, Digitaria sanguinalis
# Summary of the method: as §1
# [14] = 31 g ai/ha, 0 to 100 scale, 0 no effect, 100 complete control
# [15] = 125 g ai/ha, 0 to 100 scale, 0 no effect, 100 complete control
# [16] = postemergence, visual rating, scale 0 to 100 (0 no effect, 100 complete control), 13 to 15 days
# [17] = 16 g ai/ha, preemergence, scale 0 to 100 (0 no effect, 100 complete control)
# [18] = 125 g ai/ha, preemergence, scale 0 (no effect) to 100 (complete control)
# [19] = Preemergence, 62 g ai/ha, scale 0 to 100, 0 no effect, 100 complete control
# [20] = 500 g ai/ha, 0 to 100 scale where 0 is no effect and 100 is complete control
# [21] = 16 g ai/ha, postemergence, 0 is no effect, 100 is complete control
# [22] = 125 g ai/ha, postemergence, visual rating, scale 0 to 100 (0 no effect, 100 complete control)
# [23] = Postemergence, 62 g ai/ha, scale 0 to 100 (0 no effect, 100 complete control), 13 to 15 days
# [24] = 31 g ai/ha, postemergence, visual rating, scale 0 to 100 (0 no effect, 100 complete control), 13 to 15 days
structure (smiles),measurement,setting,value
"N#Cc1cccc(Oc2ncc(Cl)cn2)c1-n1cc(C(F)F)cn1 [Compound 253, 3-(5-chloropyrimidin-2-yl)oxy-2-[4-(difluoromethyl)-1H-pyrazol-1-yl]benzonitrile]",pest or weed control at 16 g/ha,"[1]; Lolium multiflorum, pre-emergence, 16 g ai/ha, preemergence, scale 0 to 100 (0 no effect, 100 complete control), read-out: Ryegrass, Italian plant response rating",0%
same,pest or weed control at 125 g/ha,"[1]; Lolium multiflorum, pre-emergence, 125 g ai/ha, preemergence, scale 0 (no effect) to 100 (complete control), read-out: Ryegrass, Italian plant response rating",80%
same,pest or weed control at 62 g/ha,"[1]; Lolium multiflorum, pre-emergence, Preemergence, 62 g ai/ha, scale 0 to 100, 0 no effect, 100 complete control, read-out: Plant response rating, Ryegrass, Italian",35%
same,pest or weed control at 250 g/ha,"[2]; Echinochloa crus-galli, read-out: Plant response rating, Barnyardgrass",40%
same,"Plant response rating, Ragweed",[3]; [14],20
same,"Plant response rating, Ragweed",[3]; [15],80
same,Wheat plant response rating,[4]; [16],0
same,plant injury at 16 g/ha,"[4]; Triticum aestivum, post-emergence, 16 g ai/ha, postemergence, 0 is no effect, 100 is complete control, read-out: Plant response rating (0 to 100), Wheat",0%
same,plant injury at 125 g/ha,"[4]; Triticum aestivum, post-emergence, 125 g ai/ha, postemergence, visual rating, scale 0 to 100 (0 no effect, 100 complete control), read-out: Plant response rating, Wheat",0%
same,plant injury at 62 g/ha,"[4]; Triticum aestivum, post-emergence, Postemergence, 62 g ai/ha, scale 0 to 100 (0 no effect, 100 complete control), 13 to 15 days, read-out: Plant response rating, Wheat",0%
same,Pigweed plant response rating (0 to 100 scale),[5],100
same,pest or weed control at 31 g/ha,"[5]; Amaranthus retroflexus, pre-emergence, 240 h, 31 g ai/ha, 0 to 100 scale where 0 is no effect and 100 is complete control, visual, approximately 10 days, read-out: Plant response rating, Pigweed",100%
same,"Foxtail, Giant plant response rating (0 to 100 scale)",[6],100
same,pest or weed control at 31 g/ha,"[6]; Setaria faberi, pre-emergence, 240 h, 31 g ai/ha, 0 to 100 scale where 0 is no effect and 100 is complete control, visual, approximately 10 days, read-out: Plant response rating, Foxtail, Giant",70%
same,pest or weed control at 16 g/ha,"[7]; Stellaria media, post-emergence, 16 g ai/ha, postemergence, 0 is no effect, 100 is complete control, read-out: Plant response rating (0 to 100), Chickweed",60%
same,pest or weed control at 31 g/ha,"[7]; Stellaria media, post-emergence, 31 g ai/ha, postemergence, visual rating, scale 0 to 100 (0 no effect, 100 complete control), 13 to 15 days, read-out: Chickweed plant response rating",70%
same,pest or weed control at 125 g/ha,"[7]; Stellaria media, post-emergence, 125 g ai/ha, postemergence, visual rating, scale 0 to 100 (0 no effect, 100 complete control), read-out: Plant response rating, Chickweed",90%
same,pest or weed control at 62 g/ha,"[7]; Stellaria media, post-emergence, Postemergence, 62 g ai/ha, scale 0 to 100 (0 no effect, 100 complete control), 13 to 15 days, read-out: Plant response rating, Chickweed",90%
same,"Plant response rating, Blackgrass",[8]; [14],20
same,"Plant response rating, Blackgrass",[8]; [15],80
same,"Plant response rating, Ragweed","[9]; 31 g ai/ha, 0 to 100 scale where 0 is no effect and 100 is complete control, visual, approximately 10 days",20
same,Ragweed plant response rating (0 to 100 scale),[9],80
same,pest or weed control at 16 g/ha,"[10]; Bassia scoparia, post-emergence, 16 g ai/ha, postemergence, 0 is no effect, 100 is complete control, read-out: Plant response rating (0 to 100), Kochia",80%
same,pest or weed control at 31 g/ha,"[10]; Bassia scoparia, post-emergence, 31 g ai/ha, postemergence, visual rating, scale 0 to 100 (0 no effect, 100 complete control), 13 to 15 days, read-out: Kochia plant response rating",98%
same,pest or weed control at 125 g/ha,"[10]; Bassia scoparia, post-emergence, 125 g ai/ha, postemergence, visual rating, scale 0 to 100 (0 no effect, 100 complete control), read-out: Plant response rating, Kochia",100%
same,pest or weed control at 62 g/ha,"[10]; Bassia scoparia, post-emergence, Postemergence, 62 g ai/ha, scale 0 to 100 (0 no effect, 100 complete control), 13 to 15 days, read-out: Plant response rating, Kochia",100%
same,"Oat, Wild plant response rating",[11]; [16],0
same,pest or weed control at 16 g/ha,"[11]; Avena fatua, post-emergence, 16 g ai/ha, postemergence, 0 is no effect, 100 is complete control, read-out: Plant response rating (0 to 100), Oat, Wild",0%
same,pest or weed control at 125 g/ha,"[11]; Avena fatua, post-emergence, 125 g ai/ha, postemergence, visual rating, scale 0 to 100 (0 no effect, 100 complete control), read-out: Plant response rating, Oat, Wild",10%
same,pest or weed control at 62 g/ha,"[11]; Avena fatua, post-emergence, Postemergence, 62 g ai/ha, scale 0 to 100 (0 no effect, 100 complete control), 13 to 15 days, read-out: Plant response rating, Oat, Wild",10%
same,plant injury at 31 g/ha,"[12]; Triticum aestivum, post-emergence, 240 h, 31 g ai/ha, 0 to 100 scale, 0 no effect, 100 complete control, read-out: Plant response rating, Wheat",20%
same,plant injury at 125 g/ha,"[12]; Triticum aestivum, post-emergence, 240 h, 125 g ai/ha, 0 to 100 scale, 0 no effect, 100 complete control, read-out: Plant response rating, Wheat",30%
same,pest or weed control at 16 g/ha,"[13]; Digitaria sanguinalis, pre-emergence, 16 g ai/ha, preemergence, scale 0 to 100 (0 no effect, 100 complete control), read-out: Crabgrass, Large plant response rating",85%
same,pest or weed control at 125 g/ha,"[13]; Digitaria sanguinalis, pre-emergence, 125 g ai/ha, preemergence, scale 0 (no effect) to 100 (complete control), read-out: Crabgrass, Large plant response rating",100%
same,pest or weed control at 62 g/ha,"[13]; Digitaria sanguinalis, pre-emergence, Preemergence, 62 g ai/ha, scale 0 to 100, 0 no effect, 100 complete control, read-out: Plant response rating, Crabgrass, Large",100%
N#Cc1cnn(-c2c(Oc3ncc(F)cn3)cccc2C(F)F)c1 [Compound 240],"Ryegrass, Italian plant response rating",[1]; [17],0
same,"Ryegrass, Italian plant response rating",[1]; [18],50
same,"Plant response rating, Ryegrass, Italian",[1]; [19],0
same,"Plant response rating, Barnyardgrass",[2],0
same,"Plant response rating, Ragweed",[3]; [15],100
same,"Plant response rating, Ragweed",[3]; [20],100
same,"Plant response rating (0 to 100), Wheat",[4]; [21],0
same,Wheat plant response rating,[4]; [16],0
same,"Plant response rating, Wheat",[4]; [22],5
same,"Plant response rating, Wheat",[4]; [23],5
same,Pigweed plant response rating (0 to 100 scale),[5],100
same,Pigweed plant response rating,[5]; [20],100
same,"Foxtail, Giant plant response rating (0 to 100 scale)",[6],100
same,"Foxtail, Giant plant response rating",[6]; [20],100
same,"Plant response rating (0 to 100), Chickweed",[7]; [21],5
same,Chickweed plant response rating,[7]; [24],5
same,"Plant response rating, Chickweed",[7]; [22],55
same,"Plant response rating, Chickweed",[7]; [23],55
same,"Plant response rating, Blackgrass",[8]; [15],90
same,"Plant response rating, Blackgrass",[8]; [20],100
same,Ragweed plant response rating (0 to 100 scale),[9],90
same,Ragweed plant response rating,[9]; [20],100
same,"Plant response rating (0 to 100), Kochia",[10]; [21],40
same,Kochia plant response rating,[10]; [24],45
same,"Plant response rating, Kochia",[10]; [22],90
same,"Plant response rating, Kochia",[10]; [23],45
same,"Plant response rating (0 to 100), Oat, Wild",[11]; [21],0
same,"Oat, Wild plant response rating",[11]; [16],0
same,"Plant response rating, Oat, Wild",[11]; [22],0
same,"Plant response rating, Oat, Wild",[11]; [23],0
same,"Plant response rating, Wheat",[12]; [15],30
same,"Plant response rating, Wheat",[12]; [20],90
same,"Crabgrass, Large plant response rating",[13]; [17],75
same,"Crabgrass, Large plant response rating",[13]; [18],100
same,"Plant response rating, Crabgrass, Large",[13]; [19],100
